The values that follow come from article PMC9037111, “Structure-based design, synthesis, and biological evaluation of novel piperine–resveratrol hybrids as antiproliferative agents targeting SIRT-2” (RSC Advances, 2021).

The subject of one assay is DU-145. The assay can be described thus: cells. Further details: species or system NCI-60 human tumour cell lines; NCI-60 one-dose screen at 10 uM, percent growth inhibition versus untreated control cells. Conditions: Homo sapiens, DU-145; growth inhibition, one dose; read-out: Growth% inhibition / 5h. On the procedure: (§1) The antiproliferative activity of the target compounds 5a–h was screened against a panel of 60 cancer cell lines according to NCI-guidelines at concentration of 10 μM. The results for each compound (Table 1) were recorded as the percent of growth inhibition of treated cells compared to untreated control cells. […] In addition, 5b recorded significant activity against leukemia cancer cell lines K-562 and MOLT-4, Non-small cell lung cancer cell lines NCI-H322M and NCI-H460, Colon cancer cell lines COLO 205, HCT-15 and HCT-116, CNS cancer cell lines SF-295 and SF-539, Melanoma cancer cell lines LOX IMVI and UACC-62, Ovarian cancer cell lines NCI/ADR-RES, OVCAR-3, and OVCAR-4, Renal cancer cell lines CAKI-1, ACHN, and UO-31, and Breast cancer MCF7 cell line with growth inhibition percentage between 80 to 95. […] The methodology of the NCI anticancer screening has been described in detail elsewhere (https://dtp.cancer.gov/).[52]

The subject of a further assay is U251. Put plainly: cells. Conditions: Homo sapiens, U-251; growth inhibition, one dose; read-out: Growth% inhibition / 5h. Further details: species or system NCI-60 human tumour cell lines; NCI-60 one-dose screen at 10 uM, percent growth inhibition versus untreated control cells. On the procedure:
as §1

Another assay deals with OVCAR-4. Put plainly: cells. Further details: species or system NCI-60 human tumour cell lines; NCI-60 one-dose screen at 10 uM, percent growth inhibition versus untreated control cells. The conditions noted are these: Homo sapiens, OVCAR-4; growth inhibition, one dose; read-out: Growth% inhibition / 5h. On the procedure: as §1
The test system of a further assay is HS 578 T. The assay can be described thus: cells. Further details: species or system NCI-60 human tumour cell lines; NCI-60 one-dose screen at 10 uM, percent growth inhibition versus untreated control cells. Conditions: Homo sapiens, Hs-578T; growth inhibition, one dose; read-out: Growth% inhibition / 5h. On the procedure:
as §1

The next assay deals with A549/ATCC. Put plainly: cells. Further details: species or system NCI-60 human tumour cell lines; NCI-60 one-dose screen at 10 uM, percent growth inhibition versus untreated control cells. Conditions: Homo sapiens, A549; growth inhibition, one dose; read-out: Growth% inhibition / 5h. Here is the method: as §1
For a further assay, the system named is MOLT-4. The assay can be described thus: cells. Further details: species or system NCI-60 human tumour cell lines; NCI-60 one-dose screen at 10 uM, percent growth inhibition versus untreated control cells. Conditions: Homo sapiens, MOLT-4; growth inhibition, one dose; read-out: Growth% inhibition / 5h. Here is the method:
as §1

A further assay relates to SN12C. Put plainly: cells. Further details: species or system NCI-60 human tumour cell lines; NCI-60 one-dose screen at 10 uM, percent growth inhibition versus untreated control cells. Conditions: Homo sapiens, SN12C; growth inhibition, one dose; read-out: Growth% inhibition / 5h. Here is the method: as §1
The subject of a further assay is UACC-62. Put plainly: cells. Conditions: Homo sapiens, UACC-62; growth inhibition, one dose; read-out: Growth% inhibition / 5h. Further details: species or system NCI-60 human tumour cell lines; NCI-60 one-dose screen at 10 uM, percent growth inhibition versus untreated control cells. Here is the method: as §1
In another assay the test system is SR. Put plainly: cells. Further details: species or system NCI-60 human tumour cell lines; NCI-60 one-dose screen at 10 uM, percent growth inhibition versus untreated control cells. Conditions: Homo sapiens, SR; growth inhibition, one dose; read-out: Growth% inhibition / 5h. On the procedure: as §1
Another assay concerns OVCAR-8. The assay can be described thus: cells. Further details: species or system NCI-60 human tumour cell lines; NCI-60 one-dose screen at 10 uM, percent growth inhibition versus untreated control cells. The conditions noted are these: Homo sapiens, OVCAR-8; growth inhibition, one dose; read-out: Growth% inhibition / 5h. On the procedure: as §1
The next assay has as its system HCT-15. Put plainly: cells. Further details: species or system NCI-60 human tumour cell lines; NCI-60 one-dose screen at 10 uM, percent growth inhibition versus untreated control cells. The conditions noted are these: Homo sapiens, HCT-15; growth inhibition, one dose; read-out: Growth% inhibition / 5h. On the procedure: as §1
The subject of a further assay is NCI-H460. Put plainly: cells. Further details: species or system NCI-60 human tumour cell lines; NCI-60 one-dose screen at 10 uM, percent growth inhibition versus untreated control cells. Conditions: Homo sapiens, NCI-H460; growth inhibition, one dose; read-out: Growth% inhibition / 5h. Here is the method:
as §1

The next assay deals with MALME-3M. The assay can be described thus: cells. Further details: species or system NCI-60 human tumour cell lines; NCI-60 one-dose screen at 10 uM, percent growth inhibition versus untreated control cells. Conditions: Homo sapiens, Malme-3M; growth inhibition, one dose; read-out: Growth% inhibition / 5h. On the procedure: as §1
A further assay concerns KM12. Put plainly: cells. Further details: species or system NCI-60 human tumour cell lines; NCI-60 one-dose screen at 10 uM, percent growth inhibition versus untreated control cells. The conditions noted are these: Homo sapiens, KM12; growth inhibition, one dose; read-out: Growth% inhibition / 5h. On the procedure: as §1
The subject of the next assay is ACHN. Put plainly: cells. Conditions: Homo sapiens, ACHN; growth inhibition, one dose; read-out: Growth% inhibition / 5h. Further details: species or system NCI-60 human tumour cell lines; NCI-60 one-dose screen at 10 uM, percent growth inhibition versus untreated control cells. Here is the method:
as §1

The target in another assay is T1, SIRT2 (Homo sapiens, UniProt Q8IXJ6).
T1 sequence (Q8IXJ6 2-389): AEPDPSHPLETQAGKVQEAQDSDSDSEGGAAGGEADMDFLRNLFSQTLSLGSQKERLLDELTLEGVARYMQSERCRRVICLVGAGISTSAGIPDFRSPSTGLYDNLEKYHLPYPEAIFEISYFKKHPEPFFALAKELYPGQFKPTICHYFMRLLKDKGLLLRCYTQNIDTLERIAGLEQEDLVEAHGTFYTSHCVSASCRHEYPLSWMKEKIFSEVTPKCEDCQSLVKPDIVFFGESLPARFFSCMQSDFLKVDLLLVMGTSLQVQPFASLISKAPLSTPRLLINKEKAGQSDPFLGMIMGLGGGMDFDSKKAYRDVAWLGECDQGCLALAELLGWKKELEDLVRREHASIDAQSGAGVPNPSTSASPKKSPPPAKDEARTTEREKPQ
The assay can be described thus: sirtuin deacetylase inhibition assay, IC50. The assay is classed as biochemical.

For `C/C(=N\NC(=O)/C=C/C=C/c1ccc2c(c1)OCO2)c1ccc(Br)cc1` [5h, (2E,4E)-5-(Benzo[d][1,3]dioxol-5-yl)-N′-((E)-1-(4-bromophenyl)ethylidene)penta-2,4-dienehydrazide], the inhibition at 10 µM is 44% with DU-145; 16% with U251; 65.2% with OVCAR-4; 86.5% in the assay with HS 578 T; 12.5% in the assay with A549/ATCC; 25.3% in the assay on MOLT-4. Besides, the inhibition at 10 µM with SN12C came to 12.4%; in the assay on UACC-62, 28.5%; in the assay with SR, 93.3%; with OVCAR-8, 24.7%; in the assay on HCT-15 it was 36.3%; with NCI-H460, 60.4%. Also, the inhibition at 10 µM came to 28.7% in the assay with MALME-3M, 24.9% in the assay on KM12 and 24.1% in the assay with ACHN. In addition, it took 26 ± 3 µM to reach half-maximal inhibition at SIRT2 (IC50).
